{"source": "ChEMBL document CHEMBL5614428", "about": "“Synthesis and antibacterial activities of heterocyclic ring-fused 20(S)-protopanaxadiol derivatives” (Bioorg Med Chem, 2024)", "key": {"Staphylococcus aureus [1]": {"system": "Staphylococcus aureus", "test": "Antibacterial activity against Staphylococcus aureus Newman assessed as inhibition of bacterial growth incubated for 18 hrs by two fold serial dilution assay", "format": "functional"}, "Staphylococcus aureus [2]": {"system": "Staphylococcus aureus", "test": "Antibacterial activity against methicillin-resistant Staphylococcus aureus USA300 assessed as inhibition of bacterial growth incubated for 18 hrs by two fold serial dilution assay", "format": "functional"}, "Staphylococcus aureus [3]": {"system": "Staphylococcus aureus", "test": "Antibacterial activity against methicillin-resistant Staphylococcus aureus NRS-1 assessed as inhibition of bacterial growth incubated for 18 hrs by two fold serial dilution assay", "format": "functional"}, "Staphylococcus aureus [4]": {"system": "Staphylococcus aureus", "test": "Antibacterial activity against methicillin-resistant Staphylococcus aureus NRS-70 assessed as inhibition of bacterial growth incubated for 18 hrs by two fold serial dilution assay", "format": "functional"}, "Staphylococcus aureus [5]": {"system": "Staphylococcus aureus", "test": "Antibacterial activity against methicillin-resistant Staphylococcus aureus NRS-100 assessed as inhibition of bacterial growth incubated for 18 hrs by two fold serial dilution assay", "format": "functional"}, "Staphylococcus aureus [6]": {"system": "Staphylococcus aureus", "test": "Antibacterial activity against methicillin-resistant Staphylococcus aureus NRS-108 assessed as inhibition of bacterial growth incubated for 18 hrs by two fold serial dilution assay", "format": "functional"}, "Staphylococcus aureus [7]": {"system": "Staphylococcus aureus", "test": "Antibacterial activity against methicillin-resistant Staphylococcus aureus NRS-271 assessed as inhibition of bacterial growth incubated for 18 hrs by two fold serial dilution assay", "format": "functional"}, "Staphylococcus aureus [8]": {"system": "Staphylococcus aureus", "test": "Antibacterial activity against methicillin-resistant Staphylococcus aureus XJ017 assessed as inhibition of bacterial growth incubated for 18 hrs by two fold serial dilution assay", "format": "functional"}, "Staphylococcus aureus [9]": {"system": "Staphylococcus aureus", "test": "Antibacterial activity against methicillin-resistant Staphylococcus aureus XJ036 assessed as inhibition of bacterial growth incubated for 18 hrs by two fold serial dilution assay", "format": "functional"}, "Staphylococcus aureus [10]": {"system": "Staphylococcus aureus", "test": "Antibacterial activity against methicillin-resistant Staphylococcus aureus USA300 assessed as fold increase in inhibition of bacterial growth incubated for 18 hrs by two fold serial dilution assay relative to (S)-4-((1S,3aR,3bR,5aR,13aR,13bR,15R,15aR)-15-hydroxy-3a,3b,6,6,13a-pentamethyl-2,3,3a,3b,4,5,5a,6,13,13a,13b,14,15,15a-tetradecahydro-1H-cyclopenta[5,6]naphtho[1,2-b]phenazin-1-yl)pentane-1,4-diol", "format": "functional"}, "[11]": {"test": "Toxicity in Zebrafish at 25 to 75 mg/kg,ip administration measured upto 120 hrs", "format": "organism-based, Danio rerio", "conditions": "in vivo, dose 25-75 mg/kg"}, "Staphylococcus aureus [12]": {"system": "Staphylococcus aureus", "test": "Antibacterial activity against methicillin-resistant Staphylococcus aureus USA300 infected in zebrafish assessed as increase in survival rate at 50 mg/kg,ip administration measured for 5 days relative to Vancomycin", "format": "functional, organism-based", "conditions": "time 5.0 day"}, "Staphylococcus aureus [13]": {"system": "Staphylococcus aureus", "test": "Antibacterial activity against methicillin-resistant Staphylococcus aureus USA300 infected in zebrafish assessed as increase in survival rate at 25 mg/kg,ip administration measured for 5 days", "format": "functional, organism-based", "conditions": "time 5.0 day"}, "Staphylococcus aureus [14]": {"system": "Staphylococcus aureus", "test": "Antibacterial activity against Staphylococcus aureus Newman assessed as fold increase in inhibition of bacterial growth incubated for 18 hrs by two fold serial dilution assay relative to (S)-4-((1S,3aR,3bR,5aR,12aR,12bR,14R,14aR)-14-hydroxy-3a,3b,6,6,12a-pentamethyl-1,2,3,3a,3b,4,5,5a,6,7,12,12a,12b,13,14,14a-hexadecahydrocyclopenta[5,6]naphtho[2,1-b]carbazol-1-yl)pentane-1,4-diol", "format": "functional"}}, "note": "The source made the active and inactive calls. The rule behind the calls is not given here.", "data": [{"smiles": "CC1(C)c2nc3ccccc3nc2C[C@]2(C)[C@H]3C[C@@H](O)[C@@H]4[C@@H]([C@@](C)(O)CCC(N)=O)CC[C@@]4(C)[C@]3(C)CC[C@@H]12", "values": [{"measurement": "MIC", "setting": "Staphylococcus aureus [1]", "result": 4, "unit": "µg/mL"}, {"measurement": "MIC", "setting": "Staphylococcus aureus [2]", "result": 4, "unit": "µg/mL"}, {"measurement": "MIC", "setting": "Staphylococcus aureus [3]", "result": 4, "unit": "µg/mL"}, {"measurement": "MIC", "setting": "Staphylococcus aureus [4]", "result": 4, "unit": "µg/mL"}, {"measurement": "MIC", "setting": "Staphylococcus aureus [5]", "result": 4, "unit": "µg/mL"}, {"measurement": "MIC", "setting": "Staphylococcus aureus [6]", "result": 4, "unit": "µg/mL"}, {"measurement": "MIC", "setting": "Staphylococcus aureus [7]", "result": 4, "unit": "µg/mL"}, {"measurement": "MIC", "setting": "Staphylococcus aureus [8]", "result": 4, "unit": "µg/mL"}, {"measurement": "MIC", "setting": "Staphylococcus aureus [9]", "result": 4, "unit": "µg/mL"}, {"measurement": "fold change (FC)", "setting": "Staphylococcus aureus [10]", "result": 2}]}, {"smiles": "CC1(C)c2nc3ccccc3nc2C[C@]2(C)[C@H]3C[C@@H](O)[C@@H]4[C@@H]([C@@](C)(O)CCC(=O)Nc5nccs5)CC[C@@]4(C)[C@]3(C)CC[C@@H]12", "values": [{"measurement": "MIC", "setting": "Staphylococcus aureus [1]", "result": 1, "unit": "µg/mL"}, {"measurement": "MIC", "setting": "Staphylococcus aureus [2]", "result": 1, "unit": "µg/mL"}, {"measurement": "MIC", "setting": "Staphylococcus aureus [3]", "result": 1, "unit": "µg/mL"}, {"measurement": "MIC", "setting": "Staphylococcus aureus [4]", "result": 1, "unit": "µg/mL"}, {"measurement": "MIC", "setting": "Staphylococcus aureus [5]", "result": 4, "unit": "µg/mL"}, {"measurement": "MIC", "setting": "Staphylococcus aureus [6]", "result": 2, "unit": "µg/mL"}, {"measurement": "MIC", "setting": "Staphylococcus aureus [7]", "result": 1, "unit": "µg/mL"}, {"measurement": "MIC", "setting": "Staphylococcus aureus [8]", "result": 0.5, "unit": "µg/mL"}, {"measurement": "MIC", "setting": "Staphylococcus aureus [9]", "result": 1, "unit": "µg/mL"}, {"measurement": "Activity", "setting": "[11]", "result": "Non-Toxic"}, {"measurement": "Activity", "setting": "Staphylococcus aureus [12]", "result": "Active"}, {"measurement": "Activity", "setting": "Staphylococcus aureus [13]", "result": "Active"}, {"measurement": "fold change (FC)", "setting": "Staphylococcus aureus [14]", "result": 4}]}]}
